Values quoted from earlier work, collected in patent US7771757B2, “Nasal irrigation solutions and methods of using same” (Himalayan International Institute of Yoga Science and …, priority 2002, dated 2010).

How the values were obtained:
common cold = details: variously administered forms; in many cases

Compound	activity in vitro against the growth of organisms (staphylococci)	activity in vitro against the growth of organisms (streptococci)	activity in vitro against the growth of organisms (pneumococci)	reduction of the duration of common cold symptoms (common cold)
COc1ccc2cc3[n+](cc2c1OC)CCc1cc2c(cc1-3)OCO2 [berberine]	active	active	active	–
zinc	–	–	–	by half
